US20250026752A1, “POSITIVE ALLOSTERIC MODULATORS OF THE MUSCARINIC ACETYLCHOLINE RECEPTOR M4” (Vanderbilt University, priority 2021, published 2025)

Target: T1, human mAChR M4 (Homo sapiens, UniProt P08173)
T1 construct: expressed in transfected cells; host or cells: CHO-K1 (ATCC), stably expressing hM4 and Gqi5
T1 sequence (P08173 1-479): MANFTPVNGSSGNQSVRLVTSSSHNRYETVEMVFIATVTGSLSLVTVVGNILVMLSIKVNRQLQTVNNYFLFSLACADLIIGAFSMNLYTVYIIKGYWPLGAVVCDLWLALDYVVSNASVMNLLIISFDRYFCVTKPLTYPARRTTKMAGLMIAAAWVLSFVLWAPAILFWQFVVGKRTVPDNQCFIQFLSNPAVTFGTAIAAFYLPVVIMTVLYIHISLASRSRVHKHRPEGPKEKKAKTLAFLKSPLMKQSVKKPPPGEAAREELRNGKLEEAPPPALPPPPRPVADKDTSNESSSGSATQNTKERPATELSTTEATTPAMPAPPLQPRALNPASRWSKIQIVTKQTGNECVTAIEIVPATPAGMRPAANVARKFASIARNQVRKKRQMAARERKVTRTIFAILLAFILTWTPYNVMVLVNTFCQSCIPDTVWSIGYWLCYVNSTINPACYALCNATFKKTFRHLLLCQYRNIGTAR
Experiment: mAChR M4 cell-based functional assay: calcium flux (Fluo-4, FDSS), positive allosteric modulator activity on the EC20 acetylcholine response, hM4-Gqi5 CHO-K1 cells
Details: for Emax at 30 µM: CHO-K1, human M4, % ACh maximum at 30 μM; for EC50: human M4, PAM activity on EC20 acetylcholine response, calcium flux, read-out: Human M4 EC50
Description: Human M4 cDNA, along with the chimeric G protein Gqi5, were transfected into Chinese hamster ovary (CHO-K1) cells purchased from the American Type Culture Collection using commercially available Lipofectamine 2000 transfection reagent (Dalby, B. et al., Methods (2004) 33(2), 95-103). hM4-Gqi5 cells were grown in Ham's F-12 medium containing 10% heat-inactivated fetal bovine serum (FBS), 20 mM […], 50 μg/mL G418 sulfate (CAS #108321-42-2), and 500 μg/mL Hygromycin B. rM4-Gqi5 cells were grown in DMEM containing 10% heat-inactivated FBS, 20 mM HEPES, 400 μg/mL G418 sulfate, and 500 μg/mL Hygromycin B.
For high throughput measurement of agonist-evoked increases in intracellular calcium, CHO-K1 cells stably expressing muscarinic receptors were plated in growth medium lacking G418 sulfate and hygromycin at 15,000 cells/20 μL/well in Greiner 384-well black-walled, tissue culture (TC)-treated, clear-bottom plates (VWR). Cells were incubated overnight at 37° C. and 5% C02. The next day, cells were washed using an ELX 405 (BioTek) with assay buffer; the final volume was then aspirated to 20 μL. Next, 20 μL of a 2.3 μM stock of Fluo-4/acetoxymethyl ester (Invitrogen, Carlsbad, CA), prepared as a 2.3 mM stock in DMSO and mixed in a 1:1 ratio with 10% (w/v) Pluronic F-127 and diluted in assay buffer, was added to the wells and the cell plates were incubated for 50 minutes at 37° C. and 5% C02. Dye was removed by washing with the ELX 405 and the final volume was aspirated to 20 μL. Compound master plates were formatted in an 11 point concentration-response curve (CRC) format (1:3 dilutions) in 100% DMSO with a starting concentration of 10 mM using a BRAVO liquid handler (Agilent). Test compound CRCs were then transferred to daughter plates (240 nL) using the Echo acoustic plate reformatter (Labcyte, Sunnyvale, CA) and then diluted into assay buffer (40 μL) to a 2× stock using a Thermo Fisher Combi (Thermo Fisher Scientific, Waltham, MA).
Calcium flux was measured using the Functional Drug Screening System (FDSS) 6000 or 7000 (Hamamatsu Corporation, Tokyo, Japan) as an increase in the fluorescent static ratio. Compounds were applied to cells (20 μL, 2×) using the automated system of the FDSS at 2-4 seconds into the protocol and the data were collected at 1 Hz. At 144 seconds, 10 μL of an EC20 concentration of the muscarinic receptor agonist acetylcholine was added (5×), followed by the addition of 12 μL of an EC80 concentration of acetylcholine at the 230 second time point (5×). Agonist activity was analyzed as a concentration-dependent increase in calcium mobilization upon compound addition. Positive allosteric modulator activity was analyzed as a concentration-dependent increase in the EC20 acetylcholine response. With the acetylcholine EC20 set as baseline, the test compound EC50 is determined as the concentration that produces an increase above baseline of 50% of the maximum increase in acetylcholine response elicted by the test compound. Antagonist activity was analyzed as a concentration-dependent decrease in the ECso acetylcholine response. Concentration-response curves were generated using a four-parameter logistical equation in XLFit curve fitting software (IDBS, Bridgewater, NJ) for Excel (Microsoft, Redmond, WA) or Prism (GraphPad Software, Inc., San Diego, CA).
Compounds were synthesized as described above. Activity (EC50 and Emax) was determined in the mAChR M4 cell-based functional assay as described above and the data are shown in Table 4. The compound numbers correspond to the compound numbers used in Examples 1-33 and Tables 1, 2, and 3.

## CC1CN(c2ncnc3ccc(F)cc23)Cc2cc(N3C(=O)COc4ccccc43)cnc21 (centres unmarked) [Compound 251, 4-(6-(6-fluoroquinazolin-4-yl)-8-methyl-5,6,7,8-tetrahydro-1,6-naphthyridin-3-yl)-2H-benzo[b][1,4]oxazin-3(4H)-one]
  Emax at 30 µM: 75%
  EC50: 750 nM

## [2H]c1nc2c(cc1N1CCOC(C)(C)C1)CN(c1ncnc3ccc(F)cc13)CC2 [Compound 228, 4-(6-(6-fluoroquinazolin-4-yl)-5,6,7,8-tetrahydro-1,6-naphthyridin-3-yl-2-d)-2,2-dimethylmorpholine]
  Emax at 30 µM: 97%
  EC50: 40 nM

## Fc1ccc2nc(N3CCOc4ncccc43)nc(N3CCc4ncc(C(F)(F)F)cc4C3)c2c1 [Compound 198, 1-[6-fluoro-4-[3-(trifluoromethyl)-7,8-dihydro-5H-1,6-naphthyridin-6-yl]quinazolin-2-yl]-2,3-dihydropyrido[2,3-b][1,4]oxazine]
  Emax at 30 µM: 94%
  EC50: 670 nM

## Cc1ccc(-c2cnc3c(c2)CN(c2ncnc4ccc(F)cc24)CC3)cn1 [Compound 38, 6-fluoro-4-[3-(6-methyl-3-pyridyl)-7,8-dihydro-5H-1,6-naphthyridin-6-yl]quinazoline]
  Emax at 30 µM: 93%
  EC50: 170 nM

## COc1ccc2nc(C)nc(N3CCc4ncc(C(F)(F)F)cc4C3)c2c1 [Compound 168, 6-methoxy-2-methyl-4-[3-(trifluoromethyl)-7,8-dihydro-5H-1,6-naphthyridin-6-yl]quinazoline]
  Emax at 30 µM: 71%
  EC50: 510 nM

## CC1CN(c2ncnc3ccc(F)cc23)Cc2cc(Nc3ncnc4ccc(F)cc34)cnc21 (centres unmarked) [Compound 237, 6-fluoro-N-(6-(6-fluoroquinazolin-4-yl)-8-methyl-5,6,7,8-tetrahydro-1,6-naphthyridin-3-yl)quinazolin-4-amine]
  Emax at 30 µM: 55%
  EC50: 1400 nM

## Clc1ccc2nc(Cl)nc(N3CCc4ncc(N5CCCn6nccc65)cc4C3)c2c1 [Compound 89, 2,6-dichloro-4-[3-(6,7-dihydro-5H-pyrazolo[1,5-a]pyrimidin-4-yl)-7,8-dihydro-5H-1,6-naphthyridin-6-yl]quinazoline]
  Emax at 30 µM: 109%
  EC50: 250 nM

## OC1(C2CC2)CN(c2nc(N3CCc4ncc(C(F)(F)F)cc4C3)c3cc(F)ccc3n2)C1 [Compound 201, 3-cyclopropyl-1-[6-fluoro-4-[3-(trifluoromethyl)-7,8-dihydro-5H-1,6-naphthyridin-6-yl]quinazolin-2-yl]azetidin-3-ol]
  Emax at 30 µM: 97%
  EC50: 290 nM

## Cc1ccc2ncnc(N3CCc4ncc(N5CCC(C(F)(F)F)n6nccc65)cc4C3)c2c1 (centres unmarked) [Compound 91, 6-methyl-4-[3-[7-(trifluoromethyl)-6,7-dihydro-5H-pyrazolo[1,5-a]pyrimidin-4-yl]-7,8-dihydro-5H-1,6-naphthyridin-6-yl]quinazoline]
  Emax at 30 µM: 116%
  EC50: 130 nM

## Fc1ccc2ncnc(N3CCc4ncc(N5CCO[C@@H](c6ccccc6)C5)cc4C3)c2c1 [Compound 220, (S)-4-(6-(6-fluoroquinazolin-4-yl)-5,6,7,8-tetrahydro-1,6-naphthyridin-3-yl)-2-phenylmorpholine]
  Emax at 30 µM: 59%
  EC50: 1950 nM

## CC1CN(c2cnc3c(c2)CN(c2ncnc4ccc(F)cc24)CC3)c2ccnn2C1 (centres unmarked) [Compound 225, 6-fluoro-4-(3-(6-methyl-6,7-dihydropyrazolo[1,5-a]pyrimidin-4(5H)-yl)-7,8-dihydro-1,6-naphthyridin-6(5H)-yl)quinazoline]
  Emax at 30 µM: 94%
  EC50: 70 nM

## Cc1ccc2ncnc(N3CCc4ncc(-c5cnn(C6CC6)c5)cc4C3)c2c1 [Compound 12, 4-[3-(1-cyclopropylpyrazol-4-yl)-7,8-dihydro-5H-1,6-naphthyridin-6-yl]-6-methyl-quinazoline]
  Emax at 30 µM: 114%
  EC50: 230 nM

## Cc1ccc2ncnc(N3CCc4ncc(C5CC5)cc4C3)c2c1 [Compound 160, 4-(3-cyclopropyl-7,8-dihydro-5H-1,6-naphthyridin-6-yl)-6-methyl-quinazoline]
  Emax at 30 µM: 90%
  EC50: 30 nM
